Test results taken from ChEMBL document CHEMBL5126666, “Cladoxanthones A and B, Xanthone-Derived Metabolites with a Spiro[cyclopentane-1,2'-[3,9a]ethanoxanthene]-2,4',9',11'-tetraone Skeleton from a Cladosporium sp” (J Nat Prod, 2022).

Key:
Type in all cases: functional, cell-based
[1] = Antiproliferative activity against mouse MB49 cells assessed as reduction in cell viability after 24 hrs by MTT assay; conditions: MB49, 24 h
Huh-7 = test: Antiproliferative activity against human Huh-7 cells assessed as reduction in cell viability after 24 hrs by MTT assay; conditions: Huh-7, 24 h
4T1 = test: Antiproliferative activity against mouse 4T1 cells assessed as reduction in cell viability after 24 hrs by MTT assay; conditions: 4T1, 24 h
J82 = test: Antiproliferative activity against human J82 cells assessed as reduction in cell viability after 24 hrs by MTT assay; conditions: J82, 24 h

Row | SMILES | IC50 [1] | IC50 (Huh-7) | IC50 (4T1) | IC50 (J82)
1 | C[C@H]1CCC(=O)[C@@]12C[C@]13C(=O)C[C@@]2(C)C(=O)[C@]1(C)Oc1cccc(O)c1C3=O | 13.9 µM | 24.3 µM | 38.7 µM | 25 µM
2 | CC1=CC(=O)[C@]2(O)C(=O)c3c(ccc(-c4ccc5c(c4O)C(=O)[C@@]46C[C@@]7(C(=O)CC[C@@H]7C)[C@@](C)(CC4=O)C(=O)[C@]6(C)O5)c3O)O[C@@]2(C)[C@H]1O | 41.7 µM | 46.4 µM | 27.5 µM | 24.7 µM
